Laboratory results taken from patent publication US20210085640A1, “ACYLATED CATECHIN POLYPHENOLS AND METHODS OF THEIR USE FOR THE TREATMENT OF CANCER” (Flagship Pioneering Innovations V, Inc., priority 2018, published 2021).

Assays:
Type in all cases: cell-based
AGS stomach cancer cells = assay: Cancer cell survival (CellTiter-Glo), AGS; details: 72 h
Summary of the method: (§1)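 Luminescent ATP read-out (CellTiter-Glo) after 72 h compound exposure at 37 C/5% CO2. Survival % is calculated against untreated cells minus medium background, and IC50 is taken from nine concentrations run in triplicate. Plating density was 4×10^3 cells/well with overnight attachment beforehand.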

A-431 skin cancer cells = assay: Cancer cell survival (CellTiter-Glo), A-431; details: Homo sapiens, A-431 cells, 72 h
Summary of the method: as §1

[1] = tested on: Daudi lymphoma cancer cells; assay: Cancer cell survival (CellTiter-Glo), Daudi; details: Homo sapiens, 72 h
Summary of the method: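 Daudi cells (4×10^3/well) were exposed for 72 h at 37 °C to nine concentrations of compound, added as 10× solutions spanning 1 μM–10 mM (fatty acids) or 100 nM–1 mM (others). CellTiter-Glo luminescence gave % survival versus untreated, medium-blank corrected; IC50 derived.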

A549 lung cancer cells = assay: Cancer cell survival (CellTiter-Glo), A549; details: Homo sapiens, 72 h, read-out: Cell survival at given concentration
Summary of the method: as §1

MCF7 breast cancer cells = assay: Cancer cell survival (CellTiter-Glo), MCF7; details: Homo sapiens, 72 h, read-out: Cell survival at given concentration
Summary of the method: as §1

[2] = tested on: HCT 116 colorectal cancer cells; assay: Cancer cell survival (CellTiter-Glo), HCT 116; details: Homo sapiens, HCT 116 cells, 72 h
Summary of the method: as §1

[3] = tested on: PC-3 prostate cancer cells; assay: Cancer cell survival (CellTiter-Glo), PC-3; details: Homo sapiens, PC-3 cells, 72 h, read-out: Cell survival at given concentration
Summary of the method: as §1

T24 bladder cancer cells = assay: Cancer cell survival (CellTiter-Glo), T24; details: Homo sapiens
Summary of the method: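 Viability by CellTiter-Glo after 72 h compound treatment of T24 bladder cancer cells (4×10^3/well, plated the night before), nine concentration levels in triplicate. Percent survival normalised to untreated cells minus medium background, from which IC50 was determined.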

[4] = 101 nM, read-out: Cell survival at given concentration
[5] = 318 nM, read-out: Cell survival at given concentration
[6] = 316 μM, read-out: Cell survival at given concentration
[7] = 1000 μM, read-out: Cell survival at given concentration
[8] = 1 μM, read-out: Cell survival at given concentration
[9] = 3 μM, read-out: Cell survival at given concentration
[10] = 10 μM, read-out: Cell survival at given concentration
[11] = 32 μM, read-out: Cell survival at given concentration
[12] = 100 μM, read-out: Cell survival at given concentration

SMILES: O=c1cc(-c2ccc(O)cc2)oc2cc(O)cc(O)c12 [apigenin]
- viability at 0.101 µM (AGS stomach cancer cells; [4]): 99%
- viability at 0.318 µM (AGS stomach cancer cells; [5]): 102%
- viability at 1 µM (AGS stomach cancer cells; 1 μM, Table 10.1, read-out: Cell survival at given concentration): 104%
- viability at 3 µM (AGS stomach cancer cells; 3 μM, Table 10.1, read-out: Cell survival at given concentration): 101%
- viability at 10 µM (AGS stomach cancer cells; 10 μM, Table 10.1, read-out: Cell survival at given concentration): 106%
- viability at 32 µM (AGS stomach cancer cells; 32 μM, Table 10.1, read-out: Cell survival at given concentration): 102%
- viability at 100 µM (AGS stomach cancer cells; 100 μM, Table 10.1, read-out: Cell survival at given concentration): 89%
- viability at 316 µM (AGS stomach cancer cells; [6]): 71%
- viability at 1000 µM (AGS stomach cancer cells; [7]): 64%
- viability at 0.101 µM (A-431 skin cancer cells; [4]): 101%
- viability at 0.318 µM (A-431 skin cancer cells; [5]): 100%
- viability at 1 µM (A-431 skin cancer cells; [8]): 100%
- viability at 3 µM (A-431 skin cancer cells; [9]): 102%
- viability at 10 µM (A-431 skin cancer cells; [10]): 100%
- viability at 32 µM (A-431 skin cancer cells; [11]): 83%
- viability at 100 µM (A-431 skin cancer cells; [12]): 58%
- viability at 316 µM (A-431 skin cancer cells; [6]): 47%
- viability at 1000 µM (A-431 skin cancer cells; [7]): 45%
- IC50 (A-431 skin cancer cells; Table 9.1): 178 µM
- viability at 0.101 µM [1, 4]: 97%
- viability at 0.318 µM [1, 5]: 96%
- viability at 1 µM [1, 8]: 101%
- viability at 3 µM [1, 9]: 101%
- viability at 10 µM [1, 10]: 103%
- viability at 32 µM [1, 11]: 86%
- viability at 100 µM [1, 12]: 60%
- viability at 316 µM [1, 6]: 47%
- viability at 1000 µM [1, 7]: 44%
- IC50 ([1]; Table 4.1): 186 µM
- viability at 0.101 µM (A549 lung cancer cells; 101 nM): 101%
- viability at 0.318 µM (A549 lung cancer cells; 318 nM): 102%
- viability at 1 µM (A549 lung cancer cells; 1 μM): 102%
- viability at 3 µM (A549 lung cancer cells; 3 μM): 98%
- viability at 10 µM (A549 lung cancer cells; 10 μM): 102%
- viability at 32 µM (A549 lung cancer cells; 32 μM): 100%
- viability at 100 µM (A549 lung cancer cells; 100 μM): 82%
- viability at 316 µM (A549 lung cancer cells; 316 μM): 67%
- viability at 1000 µM (A549 lung cancer cells; 1000 μM): 62%
- viability at 0.101 µM (MCF7 breast cancer cells; 101 nM): 98%
- viability at 0.318 µM (MCF7 breast cancer cells; 318 nM): 99%
- viability at 1 µM (MCF7 breast cancer cells; 1 μM): 98%
- viability at 3 µM (MCF7 breast cancer cells; 3 μM): 100%
- viability at 10 µM (MCF7 breast cancer cells; 10 μM): 102%
- viability at 32 µM (MCF7 breast cancer cells; 32 μM): 89%
- viability at 100 µM (MCF7 breast cancer cells; 100 μM): 82%
- viability at 316 µM (MCF7 breast cancer cells; 316 μM): 76%
- viability at 1000 µM (MCF7 breast cancer cells; 1000 μM): 73%
- viability at 0.101 µM [2, 4]: 99%
- viability at 0.318 µM [2, 5]: 100%
- viability at 1 µM [2, 8]: 100%
- viability at 3 µM [2, 9]: 99%
- viability at 10 µM [2, 10]: 98%
- viability at 32 µM [2, 11]: 60%
- viability at 100 µM [2, 12]: 32%
- viability at 316 µM [2, 6]: 19%
- viability at 1000 µM [2, 7]: 15%
- IC50 ([2]; Table 6.1): 45.8 µM
- viability at 0.101 µM ([3]; 101 nM): 100%
- viability at 0.318 µM ([3]; 318 nM): 100%
- viability at 1 µM ([3]; 1 μM): 98%
- viability at 3 µM ([3]; 3 μM): 102%
- viability at 10 µM ([3]; 10 μM): 107%
- viability at 32 µM ([3]; 32 μM): 98%
- viability at 100 µM ([3]; 100 μM): 82%
- viability at 316 µM ([3]; 316 μM): 72%
- viability at 1000 µM ([3]; 1000 μM): 70%
- viability at 0.101 µM (T24 bladder cancer cells; T-24, 101 nM, 72 h, read-out: Cell survival at given concentration): 98%
- viability at 0.318 µM (T24 bladder cancer cells; T-24, 318 nM, 72 h, read-out: Cell survival at given concentration): 100%
- viability at 1 µM (T24 bladder cancer cells; T-24, 1 μM, 72 h, read-out: Cell survival at given concentration): 102%
- viability at 3 µM (T24 bladder cancer cells; T-24, 3 μM, 72 h, read-out: Cell survival at given concentration): 105%
- viability at 10 µM (T24 bladder cancer cells; T-24, 10 μM, 72 h, read-out: Cell survival at given concentration): 98%
- viability at 32 µM (T24 bladder cancer cells; T-24, 32 μM, 72 h, read-out: Cell survival at given concentration): 79%
- viability at 100 µM (T24 bladder cancer cells; T-24, 100 μM, 72 h, read-out: Cell survival at given concentration): 60%
- viability at 316 µM (T24 bladder cancer cells; T-24, 316 μM, 72 h, read-out: Cell survival at given concentration): 42%
- viability at 1000 µM (T24 bladder cancer cells; T-24, 1000 μM, 72 h, read-out: Cell survival at given concentration): 32%
- IC50 (T24 bladder cancer cells; T-24, 72 h, Table 3.1, read-out: 1050): 161 µM
